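Cultured in 96-well plates, cells were exposed to test compound for 48 hours across five concentrations. Abbreviation: GI50, concentration required for 50% inhibition of growth.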 Activity calls are given as the source filed them. Rule as the data show it: active = GI50 up to about 1.1 µM and inactive = higher.
Assays:
Assay in all cases: NCI-60 cell line screen, 48 h
KM12 = system: KM12
RPMI-8226 = system: RPMI-8226
UACC-62 = system: UACC-62
LOX IMVI = system: LOX IMVI
SF-268 = system: SF-268
HCC 2998 = system: HCC 2998
MCF7 = system: MCF7
T47D = system: T47D
IGROV-1 = system: IGROV-1
M14 = system: M14
HOP-62 = system: HOP-62
SK-MEL-2 = system: SK-MEL-2
A498 = system: A498
SNB-19 = system: SNB-19
Hs-578T = system: Hs-578T
U-251 = system: U-251
NCI-H226 = system: NCI-H226
SF-539 = system: SF-539

Measured: GI50

CCOC(=O)CSc1[nH]c(NC(=S)Nc2ccccc2)c(C(N)=O)c1C(N)=O
inactive: KM12 > 10 µM | RPMI-8226 > 10 µM | UACC-62 > 10 µM | LOX IMVI > 10 µM | SF-268 > 10 µM | HCC 2998 6.28 µM | MCF7 > 10 µM | T47D > 10 µM | IGROV-1 > 10 µM | M14 > 10 µM | HOP-62 > 10 µM

Nc1nc(SCCc2ccccc2)c2nc[nH]c2n1
inactive: SK-MEL-2 30.7 µM | KM12 > 100 µM | UACC-62 47.5 µM | A498 19.1 µM | LOX IMVI 41.8 µM | SF-268 46.6 µM | HCC 2998 25.9 µM | SNB-19 > 100 µM | T47D 40.9 µM | Hs-578T 64 µM | IGROV-1 51.1 µM | M14 71.3 µM | HOP-62 50.5 µM | U-251 58.5 µM | NCI-H226 61.9 µM

COC(=O)C1(CCC(C)=O)CCCCCC1=O (stereo not given)
inactive: SF-539 > 100 µM | SK-MEL-2 > 100 µM | KM12 > 100 µM | RPMI-8226 > 100 µM | UACC-62 > 100 µM | A498 > 100 µM | LOX IMVI > 100 µM | SF-268 > 100 µM | HCC 2998 > 100 µM | MCF7 > 100 µM | SNB-19 > 100 µM | T47D > 100 µM | IGROV-1 > 100 µM | M14 > 100 µM | HOP-62 > 100 µM | U-251 > 100 µM | NCI-H226 > 100 µM

O=[N+]([O-])c1ccccc1S(=O)(=O)c1cccc2c1NCCC2
inactive: SF-539 > 100 µM | SK-MEL-2 21.6 µM | KM12 96.4 µM | RPMI-8226 > 100 µM | UACC-62 24.2 µM | A498 > 100 µM | LOX IMVI 39.1 µM | SF-268 > 100 µM | HCC 2998 56.8 µM | MCF7 38.4 µM | SNB-19 65.2 µM | Hs-578T 51.1 µM | IGROV-1 34.3 µM | M14 82.8 µM | HOP-62 72.6 µM | NCI-H226 91 µM

CC(C)[Si](OC1=C(C(=O)N(C)c2ccccc2Cl)CCCCC1)(C(C)C)C(C)C
inactive: SF-539 > 100 µM | KM12 > 100 µM | RPMI-8226 > 100 µM | A498 > 100 µM | LOX IMVI > 100 µM | SF-268 > 100 µM | SNB-19 > 100 µM | T47D > 100 µM | IGROV-1 > 100 µM | M14 > 100 µM | HOP-62 > 100 µM | U-251 > 100 µM | NCI-H226 > 100 µM

CN1CCC2(CC1)SSC1(CCN(C)CC1)S2
inactive: SF-539 > 100 µM | SK-MEL-2 > 100 µM | KM12 > 100 µM | RPMI-8226 > 100 µM | UACC-62 46.7 µM | LOX IMVI 2.35 µM | SNB-19 69.3 µM | Hs-578T > 100 µM | M14 > 100 µM | HOP-62 > 100 µM | U-251 > 100 µM

CC1=C[C@H](O)[C@@]2(C)[C@@H]([C@@H]1C)[C@H]1CC[C@@H]3[C@@]4(C)CC[C@H](O)C(C)(C)[C@@H]4CC[C@@]3(C)[C@]1(C)C[C@@H]2O
inactive: SK-MEL-2 23.3 µM | KM12 22.1 µM | UACC-62 18.8 µM | LOX IMVI 21.5 µM | SF-268 10.5 µM | HCC 2998 18.8 µM | SNB-19 15.8 µM | T47D 14.3 µM | Hs-578T 22.3 µM | IGROV-1 20.5 µM | M14 17.1 µM | HOP-62 17.3 µM | U-251 20 µM | NCI-H226 23.1 µM

O=C(Nc1ccccn1)/C(=C\C(=O)c1ccc(Cl)cc1)Nc1ccccc1
inactive: KM12 > 10 µM | RPMI-8226 > 10 µM | UACC-62 > 10 µM | LOX IMVI > 10 µM | SF-268 > 10 µM | HCC 2998 > 10 µM | MCF7 > 10 µM | T47D > 10 µM | IGROV-1 > 10 µM | M14 > 10 µM | HOP-62 > 10 µM

CCOC(=O)NC(C(=O)OCC)C(F)(F)F (stereo not given)
inactive: SF-539 37.4 µM | SK-MEL-2 > 100 µM | KM12 > 100 µM | RPMI-8226 57 µM | UACC-62 > 10 µM | LOX IMVI 76.6 µM | SF-268 > 100 µM | HCC 2998 > 100 µM | MCF7 > 100 µM | SNB-19 > 100 µM | Hs-578T > 100 µM | IGROV-1 > 100 µM | M14 > 100 µM | HOP-62 > 100 µM | U-251 > 100 µM

N#Cc1c(N)nc2c3c1NC(=O)C(C(N)=O)C3c1ccccc1O2 (stereo not given)
inactive: SF-539 74 µM | SK-MEL-2 > 100 µM | KM12 > 100 µM | RPMI-8226 63 µM | UACC-62 27.5 µM | A498 > 100 µM | LOX IMVI > 100 µM | SF-268 26.2 µM | HCC 2998 > 100 µM | MCF7 > 100 µM | SNB-19 47.9 µM | T47D 95.9 µM | IGROV-1 17.3 µM | M14 > 100 µM | HOP-62 60.8 µM | U-251 > 100 µM | NCI-H226 > 100 µM

CCOC(=O)/C(C#N)=C/c1ccc(SCc2ccco2)c([N+](=O)[O-])c1
inactive: SF-539 56.8 µM | SK-MEL-2 > 100 µM | KM12 > 100 µM | RPMI-8226 > 100 µM | UACC-62 57 µM | A498 > 100 µM | LOX IMVI > 100 µM | SF-268 > 100 µM | HCC 2998 > 100 µM | MCF7 > 100 µM | SNB-19 > 100 µM | Hs-578T > 100 µM | IGROV-1 > 100 µM | M14 > 100 µM | HOP-62 > 100 µM | U-251 > 100 µM | NCI-H226 > 100 µM

CCOc1c2c(cc3c1C(=O)c1c(OC)cccc1C3=O)C=C(OC)CC2
inactive: SF-539 > 25 µM | SK-MEL-2 > 25 µM | KM12 10.6 µM | RPMI-8226 7.24 µM | UACC-62 10.3 µM | A498 > 25 µM | LOX IMVI 16.8 µM | SF-268 > 25 µM | MCF7 24.4 µM | SNB-19 > 25 µM | Hs-578T > 25 µM | IGROV-1 15.2 µM | M14 18.8 µM | HOP-62 > 25 µM | U-251 22.3 µM | NCI-H226 > 25 µM

COc1ccc(-c2c(C(C)=O)c(-c3ccccc3)n(C3OC(CO)C(O)C(O)C3O)c(=S)c2C#N)cc1 (stereo not given)
inactive: SF-539 > 100 µM | KM12 > 100 µM | UACC-62 43.6 µM | A498 > 100 µM | LOX IMVI > 100 µM | SF-268 > 100 µM | HCC 2998 > 100 µM | MCF7 > 100 µM | SNB-19 > 100 µM | T47D > 100 µM | IGROV-1 > 100 µM | M14 > 100 µM | HOP-62 > 100 µM | U-251 > 100 µM | NCI-H226 > 100 µM

C=CC[C@]1(/C=N/O)CN(S(=O)(=O)CC[Si](C)(C)C)C[C@H]2CC=CC[C@H]21
inactive: SF-539 18.2 µM | SK-MEL-2 15 µM | KM12 24.6 µM | RPMI-8226 13.4 µM | UACC-62 16.6 µM | A498 17.7 µM | LOX IMVI 19.7 µM | SF-268 32.9 µM | HCC 2998 16.7 µM | MCF7 17.3 µM | SNB-19 21.8 µM | T47D 26.4 µM | IGROV-1 15.4 µM | M14 20.2 µM | HOP-62 20 µM | U-251 17.7 µM | NCI-H226 19.5 µM

COI1NC(=O)c2ccccc21
inactive: SK-MEL-2 > 100 µM | KM12 > 100 µM | RPMI-8226 > 100 µM | UACC-62 > 100 µM | A498 > 100 µM | LOX IMVI > 100 µM | SF-268 > 100 µM | MCF7 > 100 µM | SNB-19 > 100 µM | Hs-578T > 100 µM | IGROV-1 > 100 µM | M14 > 100 µM | HOP-62 > 100 µM | U-251 > 100 µM | NCI-H226 > 100 µM

CCOc1ccc2nc(NC(=O)C(=O)C3C(=O)C(CC4C(=O)c5ccccc5C4=O)C(=O)CC3(C)C)sc2c1 (stereo not given)
inactive: SF-539 > 100 µM | SK-MEL-2 > 100 µM | KM12 > 100 µM | UACC-62 90.4 µM | LOX IMVI > 100 µM | SF-268 > 100 µM | HCC 2998 > 100 µM | MCF7 > 100 µM | SNB-19 > 100 µM | Hs-578T > 100 µM | IGROV-1 44 µM | M14 > 100 µM | HOP-62 > 100 µM | U-251 > 100 µM | NCI-H226 > 100 µM

O=c1cc(NNc2ccc(F)cc2)[nH]c(=O)[nH]1
inactive: SF-539 21.5 µM | SK-MEL-2 21.4 µM | KM12 11.7 µM | RPMI-8226 11 µM | UACC-62 15.1 µM | A498 35.3 µM | LOX IMVI > 100 µM | SF-268 20 µM | HCC 2998 23.4 µM | SNB-19 19.3 µM | T47D 27 µM | Hs-578T 28.4 µM | IGROV-1 16.6 µM | M14 8.85 µM | HOP-62 17.1 µM | U-251 25.6 µM | NCI-H226 24.6 µM

COC(=O)C1=CC(=O)OC1(OO)c1ccc(Br)cc1 (stereo not given)
inactive: SF-539 > 100 µM | SK-MEL-2 > 100 µM | KM12 > 100 µM | UACC-62 > 100 µM | LOX IMVI 48.5 µM | HCC 2998 > 100 µM | MCF7 > 100 µM | SNB-19 > 100 µM | T47D > 100 µM | IGROV-1 > 100 µM | M14 > 100 µM | U-251 > 100 µM | NCI-H226 > 100 µM
